Data on five molecules can be found in US20240082277A1, “MODIFIED ANTIHISTAMINE COMPOSITION AND ANTIVIRAL TREATMENT” (priority 2022, published 2024).

Values after ≈ are worked out from the molar mass of the structure shown. Structures can show the parent of a compound that is named as a salt. Where two headings read alike, the source gives them in different places.

One may read the inhibition as the change of the read-out against control, counted positive when it falls. Usually viability stands for a read-out of living cells in per cent, often relative to untreated cells. A word on the IC50: it is the concentration that inhibits the measured activity by half. What is called CC50 is the concentration giving 50% cytotoxicity.

Data set [1] deals with SARS-CoV-2 Delta (B.1.617.2).
Data set [2] addresses T1, human H1 histamine receptors (HRH1) (Homo sapiens, UniProt P35367).
T1 construct: expressed in transfected cells; host or cells: CHO-K1
In words: HRH1 antagonist calcium flux assay (Fluo-8, FLIPR TETRA) in CHO-K1 cells. The class given is cell-based. (In general: A change in cytosolic calcium serves as a functional read-out for many receptors and channels.)

Data set [3] relates to SARS-CoV-2 Delta (B.1.617.2). As to the kind of experiment: microbe, parasite or virus in culture.
Data set [4] concerns SARS-CoV-2 Omicron (B.1.1.529). As to the kind of experiment: microbe, parasite or virus in culture.
Another data set can be described thus: in vitro. As to conditions: African green monkey, Cytotoxicity (CC50).
The subject of data set [5] is SARS-CoV-2 Omicron (B.1.1.529).
[6] abbreviates: CHO-K1, read-out: Normalized % Inhibition.
[7] abbreviates: Severe acute respiratory syndrome coronavirus 2, VeroE6/TMPRSS2, read-out: % cell viability.

T1 sequence (P35367 whole entry): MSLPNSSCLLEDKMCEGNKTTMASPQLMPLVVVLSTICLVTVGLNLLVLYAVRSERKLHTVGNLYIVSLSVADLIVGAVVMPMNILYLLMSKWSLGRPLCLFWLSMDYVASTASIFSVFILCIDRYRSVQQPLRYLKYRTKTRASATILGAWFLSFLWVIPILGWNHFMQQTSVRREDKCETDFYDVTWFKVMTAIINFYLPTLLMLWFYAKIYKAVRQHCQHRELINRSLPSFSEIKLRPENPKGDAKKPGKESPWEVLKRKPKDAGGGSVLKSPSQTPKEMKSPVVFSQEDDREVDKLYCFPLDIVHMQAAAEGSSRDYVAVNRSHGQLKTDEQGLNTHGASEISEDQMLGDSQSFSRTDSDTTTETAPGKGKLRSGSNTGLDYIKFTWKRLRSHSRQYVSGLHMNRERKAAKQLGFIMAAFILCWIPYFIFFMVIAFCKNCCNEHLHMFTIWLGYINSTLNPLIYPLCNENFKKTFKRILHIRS

Consider `CN(C)CCOC(c1ccccc1)c1ccccc1` [Diphenhydramine hydrochloride, reference compound], for which the “Effect on percentage infection (in words)” value in data set [1] is “slight reduction in percentage infection was seen”; in data set [1] (Therapeutic treatment, Delta strain), “slight reduction in percentage infection was seen”.

With `NCCc1c[nH]cn1` [Histamine], the “RLU (maximum Relative Light Unit)” value in data set [2] came out at 3431.5 RLU.

`O=C(O)COCCN1CCN(C(c2ccccc2)c2ccc(Cl)cc2)CC1` (stereo not shown) [Cetirizine Dihydrochloride]: in data set [2] (setting [6]), the inhibition at 0.01 µM was 23.9%, the inhibition at 0.03 µM is 23.6%, the inhibition at 0.1 µM was determined as 15.3% and the inhibition at 0.3 µM is 14.2%. In data set [2] (setting [6]), the inhibition at 1 µM worked out at 31.3%, the inhibition at 3 µM was 67.3%, the inhibition at 10 µM is 98.9% and the inhibition at 100 µM was 99.3%. Further, the inhibition at 30 µM in data set [2] (CHO-K1, 30000 nM, antagonist assay vs 70 nM histamine, read-out: Normalized % Inhibition) was 100%.

Take `CCC(CC)COC(=O)[C@H](C)N[P@](=O)(OC[C@H]1O[C@@](C#N)(c2ccc3c(N)ncnn23)[C@H](O)[C@@H]1O)Oc1ccccc1` [Remdesivir]: in data set [3] (setting [7]), the viability at 0.004 µg/mL worked out at 105%, the viability at 0.012 µg/mL came out at 91.3%, the viability at 0.038 µg/mL worked out at 96.8% and the viability at 0.12 µg/mL was 105%. In data set [3] (setting [7]), the viability at 0.38 µg/mL is 101%, the viability at 1.202 µg/mL was 89.8% and the viability at 3.797 µg/mL came out at 36.8%. For the same molecule, the EC50 in data set [3] (Severe acute respiratory syndrome coronavirus 2, VeroE6/TMPRSS2, read-out: Efficacy (EC50) Delta) is approximately 3 µg/mL (≈ 4.98 µM). In data set [4] (setting [7]), the viability at 0.004 µg/mL turned out to be 101%, the viability at 0.012 µg/mL was determined as 95.9%, the viability at 0.038 µg/mL is 106% and the viability at 0.12 µg/mL stood at 105%. Moreover, in data set [4] (setting [7]), the viability at 0.38 µg/mL was 92.8%, the viability at 1.202 µg/mL turned out to be 84.1%, the viability at 3.797 µg/mL worked out at 44.6% and the viability at 12 µg/mL was 20.7%. Further, the EC50 in data set [4] (Severe acute respiratory syndrome coronavirus 2, VeroE6/TMPRSS2, read-out: Efficacy (EC50) Omicron) is approximately 3 µg/mL (≈ 4.98 µM).

For `CN(C)CCO[Si](C)(c1ccccc1)c1ccccc1` [Q-Ant #8, N,N-dimethyl-2-((methyldiphenylsilyl)oxy)ethan-1-amine], in the data set on Vero E6 TMPRSS2 cells (African green monkey), the “Cytotoxicity (CC50)” value is 415.3 µg/mL. The “Toxicity (in words)” value with Vero E6 TMPRSS2 cells (compared with traditional antihistamines) was “less toxic than traditional antihistamines”. Besides, in data set [3] (setting [7]), the viability at 0.318 µg/mL turned out to be 102%, the viability at 1.004 µg/mL was 93.9%, the viability at 3.174 µg/mL amounted to 95% and the viability at 10.029 µg/mL is 100%. Also, in data set [3] (setting [7]), the viability at 31.691 µg/mL was determined as 99.4%, the viability at 100.144 µg/mL amounted to 98.2% and the viability at 316.456 µg/mL came to 73.5%. In addition, the 50% inhibitory concentration (IC50) in data set [2] is 33.5 nM. Also, in data set [2] (setting [6]), the inhibition at 1 µM stood at 97.7%. Besides, the inhibition at 0.0003 µM in data set [2] (CHO-K1, 0.3 nM, antagonist assay vs 70 nM histamine, read-out: Normalized % Inhibition) was -32.6%. For the same molecule, the inhibition at 0.001 µM in data set [2] (CHO-K1, 1 nM, antagonist assay vs 70 nM histamine, read-out: Normalized % Inhibition) is -33.4%. The inhibition at 0.003 µM in data set [2] (CHO-K1, 3 nM, antagonist assay vs 70 nM histamine, read-out: Normalized % Inhibition) was -31%. The inhibition at 0.01 µM in data set [2] (CHO-K1, 10 nM, antagonist assay vs 70 nM histamine, read-out: Normalized % Inhibition) is -11.9%. Moreover, the inhibition at 0.03 µM in data set [2] (CHO-K1, 30 nM, antagonist assay vs 70 nM histamine, read-out: Normalized % Inhibition) was found to be 29.4%. For the same molecule, in data set [2] (CHO-K1, 100 nM, antagonist assay vs 70 nM histamine, read-out: Normalized % Inhibition), the inhibition at 0.1 µM is 72.9%. Further, the inhibition at 0.3 µM in data set [2] (CHO-K1, 300 nM, antagonist assay vs 70 nM histamine, read-out: Normalized % Inhibition) is 97.1%. In the data set “in vitro”, this molecule had a cytotoxic concentration (CC50) of 613 µg/mL (≈ 2150 µM). For the same molecule, in data set [5], the “Effect on percentage infection (in words)” value is “reduction in percentage infection was seen” and the “Efficacy (EC50) Omicron” value turned out to be 245.6 µg/mL. In data set [5] (Therapeutic treatment), the “Selectivity index Omicron (CC50/EC50)” value is listed as 1.69. For the same molecule, in data set [4] (setting [7]), the viability at 0.318 µg/mL was determined as 105%, the viability at 1.004 µg/mL is 91.3%, the viability at 3.174 µg/mL was found to be 96.8% and the viability at 10.029 µg/mL was determined as 105%. In data set [4] (setting [7]), the viability at 31.691 µg/mL was 101%, the viability at 100.144 µg/mL is 89.8% and the viability at 316.456 µg/mL stood at 36.8%. In data set [1], the “Effect on percentage infection (in words)” value is recorded as “No effect was seen” and the “Efficacy (EC50) Delta” value was determined as 483.0 µg/mL. Moreover, the “Selectivity index Delta (CC50/EC50)” value in data set [1] (Therapeutic treatment) was found to be 0.86.
